For one test, the target named is T1, PKC-βI (Homo sapiens, UniProt P05771).
T1 construct: purchased PanVera, Madison Wis; host or cells: baculovirus expression vector
Nature of the test: Protein Kinase C Scintillation Proximity Assay (SPA), PKC-βI. It is filed as biochemical. The conditions noted are these: inhibition value, recombinant human isozyme, 1 μM ATP. As to the method:
(§1) The binding activity of a compound for Protein Kinase C (PKC) was assessed using a homogeneous Scintillation Proximity Assay according to the procedure below.
(§2) The different human PKC isozymes (were obtained from PanVera, Madison Wis. and had been prepared as recombinant enzymes produced from a baculovirus expression vector) were added to a reaction mixture containing a test compound, 20 mM HEPES (pH 7.4), 100 μM CaCl2, 10 mM MgCl2, 100 μg/mL phosphatidylserine, 20 μg/mL diacylglycerol, 1 μM ATP, 0.8 μCi (^33P)ATP, and 5 μg/mL biotinylated substrate peptide (Jing Zhao et al., J. Bio. Chem., 1998, 273, 23072). The reaction was incubated for 15 min at 30° C. Reactions were terminated by the addition of streptavidin-coated SPA beads (Amersham) in a solution containing 1 mM EGTA, 10 mM EDTA and 100 μM ATP. Beads were allowed to settle overnight and the plates read in a Wallac MICROBETA scintillation counter (PerkinElmer Life sciences, Wellesley, Mass.).
(§3) Values for inhibition of various PKC isozymes and GSK 3-β by certain compounds of the invention tested in the PKC SPA and GSK 3-β assays are shown in Table 1.
Background: SPA uses beads or plates that emit light when radiolabelled molecules are held near them.

For the next test, the target named is T2, PKC-βII (Homo sapiens, UniProt P05771).
T2 construct: purchased PanVera, Madison Wis; host or cells: baculovirus expression vector
The test is described as follows: Protein Kinase C Scintillation Proximity Assay (SPA), PKC-βII. It is filed as biochemical. Particulars: inhibition value, recombinant human isozyme, 1 μM ATP. As for the experimental part:
as §1, §2, §3

Another test has as its target T3, PKC-γ (Homo sapiens, UniProt P05129).
T3 construct: purchased PanVera, Madison Wis; host or cells: baculovirus expression vector
Nature of the test: Protein Kinase C Scintillation Proximity Assay (SPA), PKC-γ. It is filed as biochemical. The conditions noted are these: inhibition value, recombinant human isozyme, 1 μM ATP. As to the method:
as §1, §2, §3

For a further test, the target named is T4, GSK 3-β (Oryctolagus cuniculus, UniProt G1T8E2).
T4 construct: purchased New England Biolabs, Beverly Mass
Nature of the test: Glycogen Synthase Kinase 3-β Assay. Type of test: biochemical, rabbit. The conditions noted are these: for IC50: inhibition value, recombinant rabbit GSK 3-β, PPI-2 substrate; for GSK 3-β % @ 0.1 μM: at 0.1 μM; for GSK 3-β % @ 1 μM: at 1 μM. As to the method: The inhibitory activity of a compound against Glycogen Synthase Kinase 3-β (GSK 3-β) activity was assessed using a recombinant rabbit GSK 3-β according to the procedure below.
The mixture was reacted for 90 minutes at 30° C. to allow phosphorylation of the PPI-2 protein and then the protein in the reaction was precipitated using 10% trichloroacetic acid (TCA). The precipitated protein was collected on filter plates (MultiScreen-DV, Millipore, Bedford Mass.), which were subsequently washed. Finally, the radioactivity was quantified using a TopCount Scintillation Counter (Packard, Meridian Conn.). […] Staurosporine or Valproate (both available from several commercial sources), known inhibitors of GSK-3-β, were used as a positive control for screening.

A further test has as its target PKC α (Homo sapiens, UniProt P17252). The test is described as follows: Protein Kinase C Scintillation Proximity Assay (SPA), PKC-α. It is filed as biochemical. The arrangement: purchased PanVera, Madison Wis; host or cells: baculovirus expression vector. The conditions noted are these: inhibition value, recombinant human isozyme, 1 μM ATP. As for the experimental part: as §1
The reaction was incubated for 15 min at 30° C. Reactions were terminated by the addition of streptavidin-coated SPA beads (Amersham) in a solution containing 1 mM EGTA, 10 mM EDTA and 100 μM ATP. Beads were allowed to settle overnight and the plates read in a Wallac MICROBETA scintillation counter (PerkinElmer Life sciences, Wellesley, Mass.).

The next test deals with L6 muscle cells. Nature of the test: Cell-Based GSK 3-β Assay (glycogen content of L6 muscle cells). Particulars: for 14C-Glucose Incorporation (dpm): L6 cells, 2 hours. As to the method:
Glycogen content of L6 muscle cells was measured according to the method described in Berger and Hayes, Anal. Biochem., 1998, 261, 159-163.
Briefly, L6 cells were serum starved overnight in alpha-MEM containing 0.1%. On the following day, cells were washed three times with 300 μL KRPH buffer (150 mM NaCl, 5 mM KCl, 2.9 mM Na2HPO4, 1.25 mM MgSO4, 1.2 mM CaCl2, 10 mM HEPES, pH 7.4) and labeled with 200 μL alpha-MEM containing 5.5 mM ^14C-Glucose (0.1 μCi) in the presence of vehicle (DMSO) or compounds. After 2 hours, cells were washed three times with ice-cold PBS and glycogen was precipitated for 2 hours using ice-cold 66% EtOH. Precipitated glycogen was then washed three times with ice-cold 66% EtOH and ^14C-glycogen was quantified using a TopCount (Packard).
Compounds were tested in separate experiments at the dose levels shown. Where shown, the 0.0 μM dose was used as a control.

Where only a bound is given, the exact number is not on record here.

T2 sequence (P05771 1-673 isoform P05771-2): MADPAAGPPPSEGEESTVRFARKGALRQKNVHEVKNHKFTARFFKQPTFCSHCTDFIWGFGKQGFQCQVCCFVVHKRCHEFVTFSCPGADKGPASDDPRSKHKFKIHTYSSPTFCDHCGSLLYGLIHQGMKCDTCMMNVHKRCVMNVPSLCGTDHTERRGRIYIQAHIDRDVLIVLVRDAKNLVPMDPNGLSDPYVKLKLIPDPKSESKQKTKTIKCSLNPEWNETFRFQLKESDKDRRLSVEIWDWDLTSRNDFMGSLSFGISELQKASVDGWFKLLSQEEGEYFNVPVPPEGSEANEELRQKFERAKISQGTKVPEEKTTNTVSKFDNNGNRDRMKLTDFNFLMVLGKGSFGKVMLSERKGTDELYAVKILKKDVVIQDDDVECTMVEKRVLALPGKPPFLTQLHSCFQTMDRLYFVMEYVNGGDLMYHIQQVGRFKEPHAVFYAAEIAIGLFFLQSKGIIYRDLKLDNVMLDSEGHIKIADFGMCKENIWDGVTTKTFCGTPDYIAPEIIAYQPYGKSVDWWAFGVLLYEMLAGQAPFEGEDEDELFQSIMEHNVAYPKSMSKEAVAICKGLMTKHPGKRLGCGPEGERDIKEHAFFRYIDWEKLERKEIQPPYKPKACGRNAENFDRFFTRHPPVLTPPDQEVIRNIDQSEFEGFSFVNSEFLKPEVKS
T1 sequence (P05771 whole entry): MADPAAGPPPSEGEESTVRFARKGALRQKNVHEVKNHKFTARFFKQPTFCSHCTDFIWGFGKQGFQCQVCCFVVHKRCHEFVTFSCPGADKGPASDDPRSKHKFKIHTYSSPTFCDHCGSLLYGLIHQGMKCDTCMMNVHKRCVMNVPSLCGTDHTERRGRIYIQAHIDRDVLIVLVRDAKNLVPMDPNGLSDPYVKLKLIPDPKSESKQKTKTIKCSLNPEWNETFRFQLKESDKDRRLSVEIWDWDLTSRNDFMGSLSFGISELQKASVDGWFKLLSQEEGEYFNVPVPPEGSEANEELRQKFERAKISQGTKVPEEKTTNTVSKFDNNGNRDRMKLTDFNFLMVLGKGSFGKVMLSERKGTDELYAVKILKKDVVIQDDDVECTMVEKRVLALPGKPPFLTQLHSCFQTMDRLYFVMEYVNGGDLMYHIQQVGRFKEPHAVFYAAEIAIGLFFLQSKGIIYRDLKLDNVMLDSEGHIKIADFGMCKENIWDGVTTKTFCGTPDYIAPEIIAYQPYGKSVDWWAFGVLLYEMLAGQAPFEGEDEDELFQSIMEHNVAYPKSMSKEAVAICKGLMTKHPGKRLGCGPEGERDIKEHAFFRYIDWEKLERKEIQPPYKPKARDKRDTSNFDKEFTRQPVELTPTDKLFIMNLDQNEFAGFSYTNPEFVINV
T4 sequence (G1T8E2 1-432): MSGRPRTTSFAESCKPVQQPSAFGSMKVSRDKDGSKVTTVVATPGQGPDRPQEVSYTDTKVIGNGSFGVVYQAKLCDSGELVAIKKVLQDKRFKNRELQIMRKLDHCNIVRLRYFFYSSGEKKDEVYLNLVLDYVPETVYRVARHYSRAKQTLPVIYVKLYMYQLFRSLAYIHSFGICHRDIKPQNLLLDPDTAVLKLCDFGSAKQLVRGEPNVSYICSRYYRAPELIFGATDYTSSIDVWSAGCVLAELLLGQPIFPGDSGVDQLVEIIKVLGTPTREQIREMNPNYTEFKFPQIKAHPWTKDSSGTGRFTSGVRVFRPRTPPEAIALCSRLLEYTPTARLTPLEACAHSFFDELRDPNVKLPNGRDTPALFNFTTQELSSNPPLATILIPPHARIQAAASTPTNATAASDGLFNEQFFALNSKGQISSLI

As usually defined, the IC50 is the concentration needed to halve the response being measured. With `O=C1NC(=O)C2=C1c1cn(c3ncccc13)CCOCCOCCOCCOCCOCCn1cc2c2cccnc21` [Cpd 3], the IC50 at PKC-βI is greater than 100000 nM; on PKC-βII, greater than 100000 nM; at PKC-γ it was greater than 100000 nM; on GSK 3-β, 33 nM; on PKC α, greater than 100000 nM.

With `O=C1NC(=O)C2=C1c1cn(c3ccccc13)CCOCCOCCn1cc2c2ccccc21` [Cpd 4], the IC50 on PKC-βI was determined as 1590 nM; on PKC-βII, 99 nM; at PKC-γ, 3460 nM; on GSK 3-β it was 102 nM; at PKC α, 1220 nM.

For the compound `O=C1NC(=O)C2=C1c1cn(c3ccccc13)CCOCCOCCOCCn1cc2c2ccccc21` [Cpd 5], the IC50 on PKC-βI turned out to be 349 nM; at PKC-βII, 16 nM; at PKC-γ, 1350 nM; on GSK 3-β, 49 nM; on PKC α, 412 nM. The “14C-Glucose Incorporation (dpm)” value with L6 muscle cells (dose 0.01 μM) was determined as 2884 dpm; in the test with L6 muscle cells (dose 0.1 μM), 2988 dpm; in the test on L6 muscle cells (dose 0.3 μM), 3339 dpm; in the test on L6 muscle cells (dose 3 μM, 0.0 μM control Cpd 1 1640, Cpd 2 2078) it was 3438 dpm; in the test with L6 muscle cells (dose 10 μM, 0.0 μM control Cpd 1 1640, Cpd 2 2078) it was 4700 dpm. Besides, in the test on L6 muscle cells (upon exposure to compound, result in words), the “glycogen synthesis in L6 skeletal muscle cells” value is “increased glycogen synthesis”.

Take `O=C1NC(=O)C2=C1c1cn(c3ccccc13)CCOCCOCCOCCOCCn1cc2c2ccccc21` [Cpd 6]: the IC50 on PKC-βI amounted to 1480 nM; at PKC-βII it was 212 nM; on PKC-γ, 4000 nM; at GSK 3-β, 45 nM; at PKC α, 2560 nM.

In the case of `O=C1NC(=O)C2=C1c1cn(c3ccccc13)CCOCCOCCOCCOCCOCCn1cc2c2ccccc21` [Cpd 7], the IC50 came to 3070 nM at PKC-βI; 285 nM at PKC-βII; 3260 nM at PKC-γ; 33 nM on GSK 3-β; 2590 nM on PKC α.

On to `O=C1NC(=O)C2=C1c1cn(c3ccccc13)Cc1cccc(c1)Cn1cc2c2cccnc21` [Cpd 8], for which the IC50 on PKC-βI turned out to be 1780 nM; at PKC-βII, 288 nM; on PKC-γ it was 783 nM; at GSK 3-β it was 233 nM; on PKC α, 1530 nM.

With `O=C1NC(=O)C2=C1c1cn(c3ccccc13)Cc1cccc(n1)Cn1cc2c2cccnc21` [Cpd 9], the IC50 on PKC-βI worked out at 338 nM; on PKC-βII it was 35 nM; on PKC-γ, 228 nM; at GSK 3-β it was 164 nM; on PKC α, 319 nM.

Turning to `CCN1CCOCCn2cc(c3ccccc32)C2=C(C(=O)NC2=O)c2cn(c3ccccc23)CCOCC1` [Cpd 12], the IC50 at PKC-βII turned out to be 8 nM; at PKC-γ it was 150 nM; at GSK 3-β it was 33 nM; at PKC α it was 20 nM.

Regarding `CN1CCOCCn2cc(c3ccccc32)C2=C(C(=O)NC2=O)c2cn(c3ccccc23)CCOCC1` [Cpd 13], the values for the IC50 on PKC-βII, on PKC-γ and on PKC α were 40 nM, 370 nM and 50 nM, respectively.

Take `CC(C)N1CCOCCn2cc(c3ccccc32)C2=C(C(=O)NC2=O)c2cn(c3ccccc23)CCOCC1` [Cpd 14]: the IC50 on PKC-βII is 15 nM; on PKC-γ, 34 nM; on GSK 3-β, 76 nM; on PKC α, 19 nM.

Take `CN1CCN(C)CCn2cc(c3ccccc32)C2=C(C(=O)NC2=O)c2cn(c3ccccc23)CCN(C)CC1` [Cpd 15]: the IC50 amounted to 27 nM on PKC-βII, 22 nM on PKC-γ, 93 nM at GSK 3-β and 42 nM on PKC α.

In the case of `CN1CCOCCn2cc(c3ccccc32)C2=C(C(=O)NC2=O)c2nn(c3ccccc23)CCOCC1` [Cpd 16], the IC50 at PKC-βII worked out at 63 nM. In addition, the “GSK 3-β % @ 0.1 μM” value on GSK 3-β was determined as 37% @ 0.1 μM.

As to `CCN1CCOCCn2cc(c3ccccc32)C2=C(C(=O)NC2=O)c2nn(c3ccccc23)CCOCC1` [Cpd 17], the IC50 at PKC-βII was determined as 385 nM. For the same compound, the “GSK 3-β % @ 0.2 μM” value on GSK 3-β (at 0.2 μM) amounted to 31% @ 0.2 μM.

`CCN1CCOCCn2cc(c3cccnc32)C2=C(C(=O)NC2=O)c2cn(c3ncccc23)CCOCC1` [Cpd 18]: the IC50 on GSK 3-β was 9200 nM.

For `O=C1NC(=O)C2=C1c1cn(c3ncccc13)CCOCCSCCOCCn1cc2c2cccnc21` [Cpd 19], the IC50 on GSK 3-β is 110 nM.

Take `O=C1NC(=O)C2=C1c1cn(c3ncccc13)CCCCCNCCCCCn1cc2c2cccnc21` [Cpd 20]: the half-inhibitory concentration (IC50) at GSK 3-β is 610 nM.

As to `CCN1CCCCCn2cc(c3cccnc32)C2=C(C(=O)NC2=O)c2cn(c3ncccc23)CCCCC1` [Cpd 21], at GSK 3-β, the IC50 stood at 1440 nM.

As to `O=C1NC(=O)C2=C1c1cn(c3ncccc13)CCCCCNCCCCn1cc2c2cccnc21` [Cpd 22], at GSK 3-β, the “GSK 3-β % @ 1 μM” value is reported as 30% @ 1 μM.

For `CCN1CCCCCn2cc(c3cccnc32)C2=C(C(=O)NC2=O)c2cn(c3ncccc23)CCCC1` [Cpd 23], the “GSK 3-β % @ 1 μM” value on GSK 3-β is reported as 46% @ 1 μM.

As for `O=C1NC(=O)C2=C1c1cn(c3ncccc13)CCCCc1cccc(n1)CCCCn1cc2c2cccnc21` [Cpd 24], the IC50 at GSK 3-β was found to be 210 nM.

Turning to `O=C1CCCCCCn2cc(c3cccnc32)C2=C(C(=O)NC2=O)c2cn(c3ncccc23)CCCC1` [Cpd 25], the IC50 on GSK 3-β was 80 nM.

Take `O=C1CCCCn2cc(c3cccnc32)C2=C(C(=O)NC2=O)c2cn(c3ncccc23)CCCC1` [Cpd 26]: at GSK 3-β, the IC50 stood at 90 nM.

In the case of `O=C1NC(=O)C2=C1c1cn(c3ncccc13)C[C@H](O)CCCCCC[C@@H](O)Cn1cc2c2cccnc21` [Cpd 27], the IC50 at GSK 3-β was 1180 nM.

Turning to `O=C1NC(=O)C2=C1c1cn(c3ncccc13)CCOCCOCCn1cc2c2cccnc21` [Cpd 28], the “GSK 3-β % @ 0.5 μM” value on GSK 3-β (at 0.5 μM) came out at 48% @ 0.5 μM.

With `COCCN1CCOCCn2cc(c3ccccc32)C2=C(C(=O)NC2=O)c2nn(c3ccccc23)CCOCC1` [Cpd 29], the IC50 at PKC-βII amounted to 369 nM. Moreover, on GSK 3-β, the “GSK 3-β % @ 0.1 μM” value was found to be 30% @ 0.1 μM.

Consider `O=C1NC(=O)C2=C1c1cn(c3ccccc13)CCOCCN(CCO)CCOCCn1cc2c2ccccc21` [Cpd 30], for which the IC50 was 11 nM on PKC-βII and 64 nM on GSK 3-β.

For the compound `CN1CCCn2cc(c3ccccc32)C2=C(C(=O)NC2=O)c2cn(c3ccccc23)CCOCCOCC1` [Cpd 31], the IC50 at PKC-βII worked out at 7 nM; at PKC-γ it was 24 nM; at PKC α it was 14 nM.

For the origin of these results see US6828327B2, “Macroheterocylic compounds useful as kinase inhibitors” (Ortho-McNeil Pharmaceutical, Inc., priority 2000, dated 2004).
